Data published in publication PMC9598926, “Design and Synthesis of (Z)-5-(Substituted benzylidene)-3-cyclohexyl-2-thioxothiazolidin-4-one Analogues as Anti-Tyrosinase and Antioxidant Compounds: In Vitro and In Silico Insights” (Antioxidants, 2022).

What was measured:
[1] = ABTS cation radical scavenging activity assay; details: test sample 100 µM, 2 min in the dark
Method: 2.12. ABTS Cation Radical Scavenging Activity Assay
The free radical scavenging activities of analogs 1–8 and Trolox were determined using an ABTS radical cation decolorization assay (SEJIN CI Co., Seoul, Korea), as previously described with minor modification. Trolox was used as the positive control. ABTS radicals were produced by adding 10 mL of 7 mM ABTS in distilled water to 10 mL of 2.45 mM aqueous potassium persulfate solution. The mixture was kept in the dark for 12–16 h at RT until the reaction was complete and absorbance had stabilized. The prepared free radical solution was then diluted with methyl alcohol so that the optical density at 734 nm was 0.70 ± 0.02. Test samples (10 µL, final concentration at 100 µM) dissolved in EtOH/DMSO (9:1 v/v) were added to the diluted free radical solution (90 µL) in a 96-well plate. After standing at RT for 2 min in the dark, well absorbances were measured at 734 nm, and ABTS radical scavenging activities were calculated using the following formula:ABTS free radical scavenging activity (%) = (Ac − As) × 100/Ac(2) where Ac indicates the absorbance of the non-treated control, and As indicates the absorbances of test samples. Experiments were conducted independently 3 times.
The ABTS (2,2′-azino-bis(3-ethylbenzothiazoline-6-sulfonic acid)) cation radical scavenging assay is also commonly used to evaluate antioxidant effects. ABTS is converted to the ABTS radical cation by the transfer of one electron to potassium persulfate. Trolox was used as the positive control, and assays were performed at a test sample (analogs 1–8 and Trolox) concentration of 100 µM. The ABTS radical solution obtained by a reaction of ABTS with potassium persulfate was mixed with test samples and left in the dark for 2 min. ABTS radical scavenging abilities were evaluated by measuring absorbances at 734 nm. […] On the other hand, analog 1 with a 4-hydroxyphenyl group, and analogs 7 and 8 with bromo substituents on the β-phenyl ring weakly scavenged the ABTS radical (16.6–24.8% scavenging). […] Furthermore, the results for ABTS and DPPH radical scavenging activities were similar.

[2] = molecular target: mushroom tyrosinase; experiment: Mushroom tyrosinase activity assay (L-tyrosine as substrate); type: biochemical; details: mushroom tyrosinase, means ± SEMs of triplicate determinations
Method: 2.2. […] In brief, 20 µL of an aqueous mushroom tyrosinase solution (1000 units/mL) and 170 µL of a substrate mixture containing 345 µM of L-tyrosine and 17.2 mM of sodium phosphate buffer (pH 6.5) were added to wells of a 96-well microplate. […] Amounts of dopachrome produced were assessed by measuring optical densities at 475 nm using a microplate reader (VersaMax®, Molecular Devices, Sunnyvale, CA, USA). […] Experiments were independently conducted three times.

[3] = Peroxynitrite (ONOO−) scavenging activity assay (DHR 123, SIN-1); details: SIN–1 10 µM; 5, 10, 20 µM
Method: 2.14. Peroxynitrite (ONOO^−) Scavenging Activity Assay
Peroxynitrite-scavenging activities were determined as described by Kooy et al. with modification. This method monitors the fluorescence of rhodamine 123, which is formed rapidly when non-fluorescent DHR 123 (dihydrorhodamine 123) (Molecular Probes, Eugene, OR, USA) in the presence of peroxynitrite. The rhodamine buffer solution (pH 7.4) included of 50 mM sodium phosphate, 90 mM sodium chloride, 5 mM potassium chloride, and 100 µM DTPA. The final concentration of DHR 123 was 5 µM. In this assay, the buffer solution was prepared prior to use and then stood on ice. Test compounds (10 µL, final concentrations: 5, 10, and 20 µM) dissolved in DMSO and added to 10 µL SIN-1 (10 µM) and 180 µL rhodamine buffer solution in the wells of a black 96-well plate. Fluorescence intensities of oxidized DHR 123 were measured using a fluorescence plate reader (Berthold Advances GmbH & Co., Bad Wildbad, Germany) with an excitation and emission wavelengths of 485 and 535 nm, respectively. Peroxynitrite scavenging activity was calculated after subtracting background fluorescence from final fluorescence intensity. Results are expressed as means ± standard deviation (SD), and L-penicillamine was used as a positive control.
Several RNS (reactive nitrogen species), including peroxynitrite (ONOO^–) and nitric oxide, are known to be involved in the induction of the melanogenesis. Therefore, we investigated the effects of analogs 1–8 on peroxynitrite scavenging activity using DHR123 (dihydrorhodamine) as a ROS indicator and SIN–1 as an RNS generator. Peroxynitrite generated by SIN–1 oxidizes DHR123 to rhodamine 123, a fluorescent compound. Thus, the effects of analogs on peroxynitrite scavenging ability were determined by measuring rhodamine 123 fluorescence.

[4] = ROS scavenging activity assay (DCFH-DA/esterase, SIN-1); details: SIN–1 10 µM; 5, 10, 20 µM
Method: 2.13. ROS Scavenging Activity Assay
The ROS scavenging activities of analogs 1–8 and Troloxwere determined as previously described by Ali et al. and Lebel and Bondy. Briefly, 2.5 mM DCFH-DA (2’,7’-dichlorodihydrofluorescein diacetate) (Molecular Probes, Eugene, OR, USA) solution was mixed with esterase (1.5 units/mL) in 50 mM phosphate buffer (pH 7.4), held for 30 min at 37 °C, and keep on ice in the dark until required. Tested compounds (10 µL; final concentrations: 5, 10, and 20 µM) dissolved in DMSO and SIN-1 (3-morpholinosydnonimine) (10 µM) and 180 µL of phosphate buffer in the wells of a black 96-well plate for 30 min. The 50 µL of DCFH-DA-esterase mixture (20 µM) was added. Fluorescence intensities of oxidized DCFH (DCF or 2′,7′-dichlorofluorescein) were measured using a microplate reader (Berthold Advances GmbH & Co., Bad Wildbad, Germany) with excitation and emission wavelengths of 485 and 530 nm, respectively. Trolox was used as the reference control.
Since it has been reported that reactive oxygen species (ROS) are concerned in the regulation of melanogenesis, we examined the ROS scavenging activities of analogs 1–8 using DCFH-DA (2′,7′-dichlorodihydrofluorescein diacetate) and esterase. Trolox and SIN–1 (3-morpholinosydnonimine) were used as the positive control and a ROS generator, respectively. Hydrolysis of DCFA-DA by esterase generates DCFH (2′,7′-dichlorodihydrofluorescein), which reacts with ROS generated by SIN–1 to produce the fluorescent compound DCF (2′,7′-dichlorofluorescein). Thus, ROS scavenging activities of analogs were assessed by measuring DCF fluorescence. […] Test samples including Trolox were treated at three different concentrations (5, 10, or 20 µM).

[5] = tested on: B16F10 cells; experiment: Melanin content analysis in α–MSH plus IBMX stimulated B16F10 cells; type: cell-based, murine; details: α–MSH/IBMX stimulated (3.5-fold), 20 µM, 72 h
Method: 2.10. Melanin Content Analysis Melanin content assays were performed to determine the effects of analog 3 on cellular melanin formation, as previously described with minor modification. […] Briefly, cultured B16F10 cells were seeded in 6-well culture plates at 1 × 10^4 cells/well and incubated for 12 h under culture conditions to allow them to adhere to well bottoms. […] Cells were then washed twice with PBS and detached from wells by incubation with Trypsin/EDTA. After centrifugation, detached cell pellets were dissolved in 1N–NaOH solution (100 µL), incubated for 1 h at 60 °C, and mixed to solubilize melanin released by cells. The ability of analog 3 to inhibit melanin production was determined by measuring well optical densities (ODs) at 405 nm using a microplate reader (VersaMax®, Molecular Devices, Sunnyvale, CA, USA). Melanin contents were calculated by dividing the ODs of samples by the control OD. Experiments were conducted independently 3 times. […] Thus, B16F10 cells were treated with analog 3 (0, 5, 10, or 20 µM) for 1 h and then stimulated with α–MSH (1 µM) plus IBMX (200 µM) for 72 h. Melanin contents were assessed by measuring optical densities at 405 nm.

[6] = DPPH radical scavenging activity assay; details: test sample 500 µM, DPPH 0.18 mM, 30 min in the dark
Method: 2.11. DPPH Radical Scavenging Activity Assay
The DPPH radical scavenging activities of analogs 1–8 were investigated as previously described with minor modification. L-Ascorbic acid was used as a positive control. In brief, 20 µL of analogs (5 mM) in DMSO or 5 mM L-ascorbic acid in distilled water were mixed with 180 µL of 0.2 mM DPPH in methanol in a 96-well microplate. After the microplate had been stored in the dark for 30 min, optical densities (ODs) were measured at 517 nm using a microplate reader (VersaMax®, Molecular Devices, Sunnyvale, CA, USA). DPPH radical scavenging activities were determined using the following formula:DPPH radical scavenging activity (%) = 100 × (Ac − As)/Ac(1) where Ac indicates the optical density of the non-treated control and As indicates the optical density of test sample. Experiments were conducted independently 3 times.
There is a possibility that compounds with antioxidant properties inhibit the oxidations of tyrosinase substrates, such as L-tyrosine and L-dopa, without interacting with the tyrosinase. Melanin production requires many oxidative processes, including the conversion of L-tyrosine to dopaquinone via L-dopa. Therefore, compounds with antioxidant activity have the potential to inhibit melanogenesis. DPPH (2,2-diphenyl-1-picrylhydrazyl) contains a free radical, and DPPH assays are commonly used to assess antioxidant activity. In this experiment, L-ascorbic acid (an antioxidant) was used as a positive control. The assay was conducted at a test sample and L-ascorbic acid concentration of 500 µM and a DPPH concentration of 0.18 mM. After standing test sample/DPPH mixtures for 30 min in the dark, optical densities were measured to evaluate radical scavenging activities.

SMILES: O=C1/C(=C/c2cc(Br)c(O)c(Br)c2)SC(=S)N1C1CCCCC1 [Analog 8, (Z)-3-Cyclohexyl-5-(3,5-dibromo-4-hydroxybenzylidene)-2-thioxothiazolidin-4-one]
- ABTS radical scavenging activity [1]: 16.6–24.8%
- IC50 [2]: > 200 µM

SMILES: CC(C)(S)C(N)C(=O)O (stereo in doubt) [penicillamine, L-penicillamine, reference compound]
- peroxynitrite scavenging [3]: significantly and concentration-dependently reduced

SMILES: O=C1/C(=C/c2ccc(O)cc2)SC(=S)N1C1CCCCC1 [Analog 1, (Z)-3-Cyclohexyl-5-(4-hydroxybenzylidene)-2-thioxothiazolidin-4-one]
- ABTS radical scavenging activity [1]: 16.6–24.8%
- ROS scavenging [4]: significantly and concentration-dependently scavenged ROS
- IC50 [2]: 65.4 ± 7.82 µM

SMILES: COc1cc(/C=C2\SC(=S)N(C3CCCCC3)C2=O)cc(OC)c1O [Analog 6, (Z)-3-Cyclohexyl-5-(4-hydroxy-3,5-dimethoxybenzylidene)-2-thioxothiazolidin-4-one]
- peroxynitrite scavenging compared with penicillamine [3]: more potently than penicillamine
- ABTS radical scavenging activity [1]: 46.9%
- IC50 [2]: > 200 µM

SMILES: O=c1cc(CO)occ1O [kojic acid, reference compound]
- melanin contents versus non-treated controls [5]: 3.0 fold

SMILES: COc1ccc(/C=C2\SC(=S)N(C3CCCCC3)C2=O)cc1O [Analog 5, (Z)-3-Cyclohexyl-5-(3-hydroxy-4-methoxybenzylidene)-2-thioxothiazolidin-4-one]
- ABTS radical scavenging activity [1]: 43.5%
- IC50 [2]: 55 ± 11.9 µM

SMILES: Cc1c(C)c2c(c(C)c1O)CCC(C)(C(=O)O)O2 (stereo not shown) [Trolox, reference compound]
- ABTS radical scavenging activity [1]: 79.8%
- ROS scavenging [4]: significantly and concentration-dependently scavenged ROS

SMILES: O=C1/C(=C/c2ccc(O)c(Br)c2)SC(=S)N1C1CCCCC1 [Analog 7, (Z)-5-(3-Bromo-4-hydroxybenzylidene)-3-cyclohexyl-2-thioxothiazolidin-4-one]
- ABTS radical scavenging activity [1]: 16.6–24.8%
- IC50 [2]: 66.2 ± 9.44 µM

SMILES: COc1cc(/C=C2\SC(=S)N(C3CCCCC3)C2=O)ccc1O [Analog 4, (Z)-3-Cyclohexyl-5-(4-hydroxy-3-methoxybenzylidene)-2-thioxothiazolidin-4-one]
- ABTS radical scavenging activity [1]: 57.7%
- DPPH radical scavenging activity [6]: 72%
- IC50 [2]: > 200 µM
